Experiments:
Test in all cases: Test D controlled growth environment herbicide test, pre- and postemergence
Type in all cases: in vivo
[1] = test system: speedwell (bird's-eye speedwell, Veronica persica)
Procedure, shortened: (§1)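 Pre-emergence: seeds sown in silt loam soil were sprayed with compound in a non-phytotoxic solvent mix containing surfactant. Post-emergence: plants at 2 to 18 cm (1- to 4-leaf stage) in peat moss/vermiculite medium got the same formulation. Visual 0–100 rating versus controls after 14 to 21 d.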

[2] = test system: barley, spring (spring barley, Hordeum vulgare)
Procedure, shortened: as §1

[3] = test system: chamomile (scentless chamomile, Matricaria inodora)
Procedure, shortened: as §1

[4] = test system: bromegrass, downy (downy bromegrass, Bromus tectorum)
Procedure, shortened: as §1

[5] = test system: kochia (Kochia scoparia)
Procedure, shortened: as §1

[6] = test system: galium (catchweed bedstraw, Galium aparine)
Procedure, shortened: as §1

[7] = test system: barley, winter (winter barley, Hordeum vulgare)
Procedure, shortened: as §1

[8] = test system: foxtail, green (green foxtail, Setaria viridis)
Procedure, shortened: as §1

[9] = test system: mustard, wild (wild mustard, Sinapis arvensis)
Procedure, shortened: as §1

[10] = test system: oat, wild (wild oat, Avena fatua)
Procedure, shortened: as §1

[11] = test system: canarygrass (Phalaris minor)
Procedure, shortened: as §1

[12] = test system: bluegrass (annual bluegrass, Poa annua)
Procedure, shortened: as §1

[13] = test system: lambsquarters (Chenopodium album)
Procedure, shortened: as §1

[14] = Postemergence, 31 g ai/ha, scale 0 to 100 (0 no effect, 100 complete control)
[15] = Postemergence, 125 g ai/ha, visual rating on scale 0 (no effect) to 100 (complete control), 14 to 21 d
[16] = Postemergence, 250 g ai/ha, scale 0 to 100 (0 no effect, 100 complete control)
[17] = Preemergence, 62 g ai/ha, scale 0 to 100 (0 no effect, 100 complete control)
[18] = Preemergence, 250 g ai/ha, scale 0 to 100 (0 no effect, 100 complete control)
[19] = postemergence, 62 g ai/ha, scale 0 to 100, 0 no effect, 100 complete control
[20] = Preemergence, 125 g ai/ha, scale 0 to 100 (0 no effect, 100 complete control)

Cc1ccc2sc(C)c(-c3c(O)c(C)nn(C)c3=O)c2c1 [Compound 1, 4-(2,5-dimethylbenzo[b]thien-3-yl)-5-hydroxy-2,6-dimethyl-3(2H)-pyridazinone]
Speedwell plant response rating [1, 14]: 25
Plant response rating, Speedwell [1, 15]: 60
Plant response rating, Speedwell [1, 16]: 70
Plant response rating (scale of 0 to 100), Speedwell ([1]; Preemergence, 31 g ai/ha): 70
Plant response rating, Speedwell [1, 17]: 50
Plant response rating, Speedwell [1, 18]: 95
Plant response rating, Speedwell [1, 19]: 55
Plant response rating, Barley, Spring [2, 14]: 0
Plant response rating, Barley, Spring [2, 15]: 5
Plant response rating, Barley, Spring [2, 16]: 10
Plant response rating (scale of 0 to 100), Barley, Spring ([2]; Preemergence, 31 g ai/ha): 0
Plant response rating, Barley, Spring [2, 17]: 0
Plant response rating, Barley, Spring [2, 20]: 10
Barley, Spring plant response rating [2, 18]: 15
Plant response rating, Barley, Spring [2, 19]: 5
Chamomile plant response rating [3, 14]: 65
Plant response rating, Chamomile [3, 15]: 85
Plant response rating, Chamomile [3, 16]: 100
Plant response rating (scale of 0 to 100), Chamomile ([3]; Preemergence, 31 g ai/ha): 95
Plant response rating, Chamomile [3, 17]: 95
Plant response rating, Chamomile [3, 20]: 95
Plant response rating, Chamomile [3, 18]: 90
Plant response rating, Chamomile [3, 19]: 75
Bromegrass, Downy plant response rating [4, 14]: 0
Plant response rating, Bromegrass, Downy [4, 15]: 10
Plant response rating, Bromegrass, Downy [4, 16]: 20
Plant response rating (scale of 0 to 100), Bromegrass, Downy ([4]; Preemergence, 31 g ai/ha): 20
Plant response rating, Bromegrass, Downy [4, 17]: 25
Plant response rating, Bromegrass, Downy [4, 20]: 70
Plant response rating, Bromegrass, Downy [4, 18]: 70
Plant response rating, Bromegrass, Downy [4, 19]: 10
Kochia plant response rating [5, 14]: 70
Plant response rating, Kochia [5, 15]: 95
Plant response rating, Kochia [5, 16]: 100
Plant response rating (scale of 0 to 100), Kochia ([5]; Preemergence, 31 g ai/ha): 0
Plant response rating, Kochia [5, 17]: 0
Plant response rating, Kochia [5, 20]: 35
Plant response rating, Kochia [5, 18]: 75
Plant response rating, Kochia [5, 19]: 85
Galium plant response rating [6, 14]: 80
Plant response rating, Galium [6, 15]: 95
Plant response rating, Galium [6, 16]: 100
Plant response rating (scale of 0 to 100), Galium ([6]; Preemergence, 31 g ai/ha): 75
Plant response rating, Galium [6, 17]: 95
Plant response rating, Galium [6, 20]: 100
Plant response rating, Galium [6, 18]: 100
Plant response rating, Galium [6, 19]: 90
Plant response rating, Barley, Winter [7, 14]: 5
Plant response rating, Barley, Winter [7, 15]: 5
Plant response rating, Barley, Winter [7, 16]: 10
Plant response rating (scale of 0 to 100), Barley, Winter ([7]; Preemergence, 31 g ai/ha): 0
Plant response rating, Barley, Winter [7, 17]: 0
Plant response rating, Barley, Winter [7, 20]: 0
Barley, Winter plant response rating [7, 18]: 0
Plant response rating, Barley, Winter [7, 19]: 5
Foxtail, Green plant response rating [8, 14]: 50
Plant response rating, Foxtail, Green [8, 15]: 75
Plant response rating, Foxtail, Green [8, 16]: 85
Plant response rating (scale of 0 to 100), Foxtail, Green ([8]; Preemergence, 31 g ai/ha): 10
Plant response rating, Foxtail, Green [8, 17]: 15
Plant response rating, Foxtail, Green [8, 20]: 75
Plant response rating, Foxtail, Green [8, 18]: 100
Plant response rating, Foxtail, Green [8, 19]: 65
Mustard, Wild plant response rating [9, 14]: 25
Plant response rating, Mustard, Wild [9, 15]: 40
Plant response rating, Mustard, Wild [9, 16]: 65
Plant response rating (scale of 0 to 100), Mustard, Wild ([9]; Preemergence, 31 g ai/ha): 0
Plant response rating, Mustard, Wild [9, 17]: 0
Plant response rating, Mustard, Wild [9, 20]: 10
Plant response rating, Mustard, Wild [9, 18]: 25
Plant response rating, Mustard, Wild [9, 19]: 30
Oat, Wild plant response rating [10, 14]: 40
Plant response rating, Oat, Wild [10, 15]: 80
Plant response rating, Oat, Wild [10, 16]: 95
Plant response rating (scale of 0 to 100), Oat, Wild ([10]; Preemergence, 31 g ai/ha): 75
Plant response rating, Oat, Wild [10, 17]: 70
Plant response rating, Oat, Wild [10, 20]: 95
Plant response rating, Oat, Wild [10, 18]: 100
Plant response rating, Oat, Wild [10, 19]: 70
Canarygrass plant response rating [11, 14]: 20
Plant response rating, Canarygrass [11, 15]: 50
Plant response rating, Canarygrass [11, 16]: 70
Plant response rating (scale of 0 to 100), Canarygrass ([11]; Preemergence, 31 g ai/ha): 40
Plant response rating, Canarygrass [11, 17]: 60
Plant response rating, Canarygrass [11, 20]: 85
Plant response rating, Canarygrass [11, 18]: 90
Plant response rating, Canarygrass [11, 19]: 35
Bluegrass plant response rating [12, 14]: 0
Plant response rating, Bluegrass [12, 15]: 5
Plant response rating, Bluegrass [12, 16]: 5
Plant response rating (scale of 0 to 100), Bluegrass ([12]; Preemergence, 31 g ai/ha): 5
Plant response rating, Bluegrass [12, 17]: 15
Plant response rating, Bluegrass [12, 20]: 35
Bluegrass plant response rating [12, 18]: 50
Plant response rating, Bluegrass [12, 19]: 5
Lambsquarters plant response rating [13, 14]: 75
Plant response rating, Lambsquarters [13, 15]: 90
Plant response rating, Lambsquarters [13, 16]: 100
Plant response rating (scale of 0 to 100), Lambsquarters ([13]; Preemergence, 31 g ai/ha): 20
Plant response rating, Lambsquarters [13, 17]: 100
Plant response rating, Lambsquarters [13, 20]: 100
Plant response rating, Lambsquarters [13, 18]: 100
Plant response rating, Lambsquarters [13, 19]: 90

Reference: US10597388B2, “Pyridazinone herbicides” (FMC CORPORATION, priority 2014, dated 2020)
